By Kd is commonly meant the free concentration of one partner at which half of the binding sites on the other are occupied at equilibrium, for simple one-to-one binding. Low values mean a tighter complex, high ones a looser complex.

Data on one compound can be found in article PMC6320874, “Inhibitory Effect of Naphthoquinone-Tryptophan Hybrid towards Aggregation of PAP f39 Semen Amyloid” (Molecules, 2018).

Molecules are shown by their SMILES.

For assay [1], the target named is T1, PAP f39 (PAP248-286) (Homo sapiens, UniProt P15309).
T1 construct: gene ACP3; synthetic 39-residue peptide fragment 248-286 (GL Biochem), N-terminal Gly, C-terminal Tyr, HFIP-pretreated monomer; 2L3H is only the docking structure of this peptide
T1 sequence (P15309 248-286): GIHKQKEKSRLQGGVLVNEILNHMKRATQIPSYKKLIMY
As to the kind of experiment: ThT fluorescence aggregation assay. In kind it is biochemical. The conditions noted are these: PBS pH 7.3, 37 °C, 1200 rpm, 96 h; 0.44 mM PAP f39, 0.022 mM NQTrp; inhibition of fibril formation.

The target in assay [2] is T1, PAP f39 (PAP248-286). The assay is described as follows: isothermal titration calorimetry. In kind it is binding. For orientation: ITC needs no label: the signal is the heat of the interaction.

Regarding `O=C1C=C(N[C@@H](Cc2c[nH]c3ccccc23)C(=O)O)C(=O)c2ccccc21` [NQTrp], at PAP f39 (PAP248-286) [1], the “% amyloid inhibition at 20:1 (PAP f39:NQTrp)” value was ~ 70%. Also, the equilibrium dissociation constant (Kd) at PAP f39 (PAP248-286) [2] came out at 5.94 ± 1.26 µM.
